Where two headings read alike, the source gives them in different places.
How the values were obtained:
[1] = system: Carrageenin edema of the hind paw of the rat; assay: Anti-edematic effect, Carrageenin paw edema method, oral, in rats; format: in vivo, rat (Wistar strain); conditions: for Anti-edematic ratio (%) / Comparison with Control Compound (anti-edematic ratio): 100 mg/kg p.o.; for Anti-edematic ratio (%): rats, 3 hours after Carrageenin; for Comparison with Control Compound (anti-edematic ratio): Control compound (Aspirin) = 100
Procedure: Test animal: For the respective compounds, four male rats of the Wistar strain weighing approximately 150g were used. The test animals were made to fast for approximately 16 hours.
The anti-edematic test is carried out by determining the increase of edema due to the injection of […], in accordance with the paw edema method. [see Winter. C. A. et al; Proc. Soc. exp.
The test compounds were respectively suspended in five percent of aqueous solution of gum Arabic, and the suspensions were orally administered to the rats one hour before the injection of the Carrageenin. Activities were determined by measuring the volume of the hind paw of the rat three hours after the administration of the Carrageenin.

stomach mucosa = assay: Degree of gastric trouble (visible observation of stomach mucosa); format: in vivo, rat (Wistar strain); conditions: for Degree of gastric trouble: 100 mg/kg p.o., sum of scores (0-3) of 4 rats
Source text: 2. Degree of gastric trouble
The rats used in above test of anti-edematic effects were slaughtered, and their stomaches were visibly observed in accordance with the under-mentioned bases. Measurement values were decided by summing up the respective data of 4 tests of each group.
Visible observation of the stomach mucosa
No abnormality is recognized
Slight edema, congestion or slight erosion
Scattered or limitted erosion and spotted
Heavy erosion, linear bleeding or enlarged

[2] = system: acetic acid Writhing syndrome; assay: Anti-acetic acid Writhing test, oral, in mice; format: in vivo, mouse (dd strain); conditions: for ED50: Mus musculus, po, read-out: ED50 (anti-acetic acid Writhing)
Procedure: Comparative tests for anti-acetic acid Writhing activity in mice were made to the Compound A of the present invention and 4-amino-pyrimidine-N^1 -phenacylbromide (hereinafter referred to as Compound C), using Aspirin as a control compound. The test compounds were respectively suspended in an of aqueous solution of containing five percent of gum Arabic. Eight male mice of dd strain weighing approximately 20 - 23g were used as the test animals. The mice were made to fast for about 19 hours.
After 50 minutes or 170 minutes of administration of the test compounds, 0.1 ml of 0.7% acetic acid solution per 10 g. of the body weight of the test animal was injected intraperitoneally. Regarding the expansion of the hind paw of the mice induced during 15 minutes after the injection, a number of Writhing syndromes were encountered and recorded. Effects of the respective test compounds against the usual behavior of the mice were also observed. In the above test, 5% gum arabic solution per se was administered to the control animal.
Various doses of the respective compounds were orally administered to eight mice. After 1 or 3 hours of the administration, a anti-acetic acid Writhing test was carried out.

pH of the test compound = format: physicochemical; conditions: footnote of Table 5
Stress Ulcer (Immersion) = Stress Ulcer (Immersion) at 23-25° C. for 20 hrs; format: in vivo, rat (Wistar strain); conditions: for Ulcer Index (mm): * P<0.05 for Compound C
Procedure: (§1) Using rats of Wistar strain as test animals weighing about 150 - 160 g., the anti-ulcer activities were measured in accordance with the conventional manner with respect to the following four (4) items.
i. Stress Ulcer (Immersion) at 23° - 25° C. for 20 hrs.

Shay Ulcer = assay: Effect on Shay Ulcer in rats (17hr. pylorus-ligated rats); format: in vivo, rat (Wistar strain)
Procedure: as §1
iii. Effect on Shay Ulcer in rats. (Method by 17hr. pylorusligated rats)

gastric secretion = assay: Effect on gastric secretion in 4hr. pylorus-ligated rats (intraduodenal); format: in vivo, rat (Wistar strain)
Procedure: as §1
ii. Effect on gastric secretion in 4hr. pylorus-ligated rats. (Intraduodenal administration)

[3] = 17hr pylorus-ligated, dose not given in Table 7
[4] = 150 (mg/μg [sic]) intraduodenal
[5] = 300 (mg/μg [sic]) intraduodenal

SMILES: CC(=O)Oc1ccccc1C(=O)O [Aspirin, reference compound]
- Anti-edematic ratio (%) [1]: 35.8%
- Comparison with Control Compound (anti-edematic ratio) [1]: 100
- Degree of gastric trouble (stomach mucosa): 12
- ED50 ([2]; 1 h): 410 mg/kg
- ED50 ([2]; 3 h): 253 mg/kg

SMILES: COc1ccc(C(=O)C[n+]2ccc(N)nc2)cc1 [Compound A, 4-aminopyrimidine N^1-(p-methoxyphenacyl)bromide]
- pH of the test compound (pH of the test compound): 6.3
- Inhibitory % (ulcer index) (Stress Ulcer (Immersion); 150 mg/Kg p.o.): 28.1%
- Ulcer Index (mm) (Stress Ulcer (Immersion); 150 mg/Kg p.o.): 37.1 ± 5.9 mm
- effect on stress ulcer in words (Stress Ulcer (Immersion); 300 mg/Kg (p.o.)): effective
- Inhibitory % (ulcer index) (Stress Ulcer (Immersion); 300 mg/Kg p.o.): 70.3%
- Ulcer Index (mm) (Stress Ulcer (Immersion); 300 mg/Kg p.o., ** P<0.01 for Compound A): 15.3 ± 6.1 mm
- anti-edematic / anti-inflammatory effect in words ([1]; 100 mg/Kg p.o.): equal to, or more than that of the Control compound
- Anti-edematic ratio (%) [1]: 50.0%
- Comparison with Control Compound (anti-edematic ratio) [1]: 140
- degree of gastric trouble in words (stomach mucosa; 100 mg/Kg p.o.): extremely less than that of the Control compound
- Degree of gastric trouble (stomach mucosa): 2
- Inhibitory % (ulcer index) (Shay Ulcer; 300 (mg/μg [sic]), 17hr pylorus-ligated): 23.4%
- Ulcer Index (mm) (Shay Ulcer; 300 (mg/μg [sic]), 17hr pylorus-ligated, Compound A n=2, individual values (0),(84), Compound C n=6, * P<0.05): 42 mm
- Inhibitory % (titrable acidity) (Shay Ulcer; [3]): 45.9%
- Inhibitory % (volume) (Shay Ulcer; [3]): 54.1%
- Titrable Acidity to pH 7.0 (Shay Ulcer; [3]): 188.2 ± 72.0 μ Eq/100g B.W.
- Vol(ml) 100g B.W. (Shay Ulcer; 17hr pylorus-ligated, dose not given in Table 7, Compound A n=2, individual values (1.11),(3.29)): 2.20 ml/100g B.W.
- inhibitory effect against the appearance of ulcer in words (Shay Ulcer; Tables 6 and 7): outstanding inhibitory effects
- Inhibitory % (titrable acidity) (gastric secretion; [4]): 92.4%
- Inhibitory % (volume) (gastric secretion; [4]): 73.3%
- Titrable acidity to PH 7.0 (gastric secretion; [4]): 14.4 ± 4.2 μEq/100g B.W.
- Vol/100 g B.W.(ml) (gastric secretion; [4]): 0.5 ± 0.06 ml/100 g B.W.
- Inhibitory % (titrable acidity) (gastric secretion; [5]): 96.4%
- Inhibitory % (volume) (gastric secretion; [5]): 64.4%
- Titrable acidity to PH 7.0 (gastric secretion; [5]): 6.8 ± 3.4 μEq/100g B.W.
- Vol/100 g B.W.(ml) (gastric secretion; [5]): 0.72 ± 0.24 ml/100 g B.W.
- No. of Writhing Syndrome (m±S.E.) ([2]; 1hr, 20 mg/Kg p.o.): 41.4 ± 5.6
- % of Protection ([2]; 1hr, 40 mg/Kg p.o.): 18%
- No. of Writhing Syndrome (m±S.E.) ([2]; 1hr, 40 mg/Kg p.o.): 33.1 ± 3.7
- % of Protection ([2]; 1hr, 80 mg/Kg p.o.): -15%
- No. of Writhing Syndrome (m±S.E.) ([2]; 1hr, 80 mg/Kg p.o.): 46.3 ± 3.6
- No. of Writhing Syndrome (m±S.E.) ([2]; 1hr, 160 mg/Kg p.o.): 29.4 ± 5.1
- % of Protection ([2]; 1hr, 160 mg/Kg p.o., * P<0.05): 27%
- No. of Writhing Syndrome (m±S.E.) ([2]; 1hr, 320 mg/Kg p.o.): 17.1 ± 4.6
- % of Protection ([2]; 1hr, 320 mg/Kg p.o., ** P<0.01): 58%
- % of Protection ([2]; 3hr, 20 mg/Kg p.o.): -13%
- No. of Writhing Syndrome (m±S.E.) ([2]; 3hr, 20 mg/Kg p.o.): 34.6 ± 5.4
- % of Protection ([2]; 3hr, 40 mg/Kg p.o.): 43%
- No. of Writhing Syndrome (m±S.E.) ([2]; 3hr, 40 mg/Kg p.o.): 17.6 ± 4.8
- % of Protection ([2]; 3hr, 80 mg/Kg p.o.): 25%
- No. of Writhing Syndrome (m±S.E.) ([2]; 3hr, 80 mg/Kg p.o.): 23.1 ± 6.6
- No. of Writhing Syndrome (m±S.E.) ([2]; 3hr, 160 mg/Kg p.o.): 21.8 ± 4.0
- % of Protection ([2]; 3hr, 160 mg/Kg p.o., ** P<0.01 for Compound C): 29%
- No. of Writhing Syndrome (m±S.E.) ([2]; 3hr, 320 mg/Kg p.o.): 3.8 ± 2.7
- % of Protection ([2]; 3hr, 320 mg/Kg p.o., ** P<0.01): 88%

— patent US4038278A, “4-Aminopyrimidium derivatives and preparation thereof” (Eisai Co., Ltd., priority 1974, dated 1977)
